Laboratory results published in patent US20250026733A1, “DEUTERATED ANALOGS OF PYROLE INHIBITORS OF ERK, SYNTHESIS THEREOF AND INTERMEDIATES THERETO” (BIOMED VALLEY DISCOVERIES, INC., priority 2022, published 2025).
Read-outs that look alike come from different tables or passages of the source. Marks after values point to notes of the source that are not given here.

Columns and labels:
[1] = test system: phospho-ERK1/2 to total ERK1/2 in A375 cells; assay: A375 pERK/ERK dose response study (MSD); type: cell-based; settings: Homo sapiens, A-375, ratio of phospho-ERK1/2 to total ERK1/2
Procedure: A375 pERK/ERK Dose Response Study:
Briefly, A375 cells were plated at 30,000 cells/well in 2×96 well plates, allowed to recover overnight, washed and fed fresh media the next day then treated with a dose response of the selected compounds. Following the determined pretreatment time with the compounds at 37° C./5% CO2, the media was aspirated, and cells lysed with cold, complete MESO Scale Discovery (MSD) lysis buffer. pERK and total ERK1/2 levels were measured using MESO Scale Discover Phospho(Thr202/Tyr204; Thr185/Tyr187)/Total ERK1/2 kits. The protocol and all reagents were provided in the kit. All wells were blocked with 150 μl Blocking Solution for one hour. […] of lysis buffer was added per well and incubated overnight at 4° C. Following the overnight incubation, the wells were washed three times with Tris Wash buffer, then […] of 1× Detection Antibody was added per well and incubated at room temperature for one hour with vigorous shaking. All wells were then washed three times with Tris Wash Buffer before 150 μl of 1× Read Buffer was added per well and the plates read using the MSD Sector Imager. Data were calculated as a ratio of phospho-ERK1/2 to total ERK1/2 to allow for normalization of the samples.

pRSK/RSK in A375 cells = assay: A375 pRSK/RSK dose response study (ELISA); type: cell-based; settings: Homo sapiens, A-375, pRSK and total RSK ELISA
Procedure: A375 pRSK/RSK Dose Response Study
Briefly, A375 cells were plated at 30,000 cells/well in 2×96 well plates, allowed to recover overnight, washed and fed fresh media the next day then treated with a dose response of the selected compounds. Following the determined pretreatment with the compounds at 37° C./5% CO2 the media was aspirated, and cells lysed with cold, complete MSD lysis buffer. pRSK and total RSK were analyzed using CST/PathScan pRSK and total RSK ELISAS according to the respective kit protocols. All samples were analyzed at 90% of remaining sample in pRSK and 10% of remaining sample in total RSK ELISA, which was performed following kit protocols.

[2] = Half-life determination in human liver microsomes; type: in vitro ADME; settings: for half-life at 1 μM: human, NADPH
Procedure: Human microsomes from a pool of 10 donors was obtained from a commercial source. Microsomes prepared in potassium phosphate buffer were spiked with ulixertinib, Formula 18, Formula 19, and Formula 21 individually in replicates of six at a final concentration of 1 μM. NADPH was used to initiate the experiment; a control of minus NADPH (minus cofactor) was also run in parallel to the human liver microsome stability. After spiking with test article, microsome replicates were placed in a 37° C. incubator with the following time course: 0, 5, 10, 15, 20, 30, 45 and 60 minutes. Samples were extracted with a protein precipitation quench consisting of ice cold acetonitrile containing internal standard (tolbutamide). Samples were analyzed for ulixertinib, Formula 18, Formula 19, and Formula 21. The half-lives of ulixertinib, Formula 18, Formula 19, and Formula 21 were characterized by the […] to determine the elimination rate (ke) and using the formula described below.
[formula] • ke (elimination rate): the slope of ln(percent remaining) vs time (in minutes)

A375 cells = assay: A375 proliferation assay (Cell TiterGlo); type: cell-based; settings: Homo sapiens, A-375, 72 hours
Procedure: Mechanism of Action (MOA) Cell Assay—A375 Cell Proliferation, pERK/ERK and pRSK/RSK Analysis:
Briefly, A375 cells were plated at 10,000 cells/well in three 96 well plates. Plates were incubated overnight at 37° C. and allowed to recover. Cells were washed with 150 μL of DPBS and 90 μL of fresh media was added to each well. The cells were then treated with a dose response of the selected compounds. Compounds were diluted from stock concentrations (10 mM in DMSO). Serial dilutions were made in DMSO, yielding 8 total different concentrations per compound. At time of compound addition, the control plate was analyzed using Cell TiterGlo to set baseline for proliferation. Compound treated cells were allowed to grow at 37° C./5% CO2 for 72 hours then analyzed using Cell TiterGlo according to kit protocol.

[3] = Steady-state exposure of ulixertinib and metabolites in human subjects; type: in vivo; settings: for % of total Ulixertinib related exposure: day 15, steady state; for AUC at 15 day: in vivo, day 15, non-isotopically enriched ulixertinib and related metabolites, read-out: Steady-State AUC (Mean ± SD)
From the text: (§1) The steady state exposure levels of non-isotopically enriched parent ulixertinib and related metabolites in rat (day 5) and human subjects (day 15) is provided in TABLE 1 below: […]

[4] = Steady-state exposure of ulixertinib and metabolites in rat; type: in vivo; settings: for % of total Ulixertinib related exposure: day 5, steady state; for AUC at 5 day: in vivo, day 5, non-isotopically enriched ulixertinib and related metabolites, read-out: Steady-State AUC (Mean ± SD)
From the text: as §1

[5] = Pharmacokinetics and metabolite formation in rats; type: in vivo, rat; settings: rat, in vivo; for AUC(0-t) / half-life: both sexes, po, 12.5 mg/kg; for AUC0-12 M2, percent change relative to Ulixertinib / AUC0-12 M3, percent change relative to Ulixertinib / AUC0-12 M6, percent change relative to Ulixertinib / AUC0-12 Parent, percent change relative to Ulixertinib / Half-life, percent change relative to Ulixertinib / longer mean half-life than ulixertinib: both
Procedure: Ulixertinib, Formulas 18A, 19A, and 21A were dosed twice daily (12 hours apart, ±30 minutes) for five consecutive days (10 doses/animal) to rats via oral gavage (PO). Each compound was administered at a dose of 12.5 mg/kg to 6 rats (3 male/3 female, N=6 rats/compound). Each compound was formulated in 1% (w/v) carboxymethylcellulose (CMC) in water at a concentration of 1.25 mg/mL. Following the second (p.m.) dose on Day 5, blood samples were collected from each rat at approximately 0.5, 1, 2, 4, 6, 8, and 12 hours post-dose. Blood samples were centrifuged to obtain plasma. Plasma samples were analyzed for concentrations of the dosed compounds and selected metabolites using an established LC-MS/MS method. The lower limit of quantitation of each compound was 1.00 ng/mL. The rat half-life values (determined by non-compartmental analysis using WinNonlin software) for each compound are shown in Table 7, and the areas under curve from time 0 to hour 12 (AUC0-12), calculated using the linear trapezoidal rule, for each dosed compound and selected metabolites are presented in Table 8.

SMILES | % of total Ulixertinib related exposure [3] | AUC at 15 day [3] | % of total Ulixertinib related exposure [4] | AUC at 5 day [4] | AUC(0-t) [5] | half-life [5] | AUC0-12 M2, percent change relative to Ulixertinib [5] | AUC0-12 M3, percent change relative to Ulixertinib [5] | AUC0-12 M6, percent change relative to Ulixertinib [5] | AUC0-12 Parent, percent change relative to Ulixertinib [5] | Half-life, percent change relative to Ulixertinib [5] | longer mean half-life than ulixertinib [5] | also measured
[2H]C(C)(C)Nc1cc(-c2c[nH]c(C(=O)N[C@H](CO)c3cccc(Cl)c3)c2)c(Cl)cn1 [Formula 21, 4-(5-chloro-2-((propan-2-yl-2-d1)amino)pyridin-4-yl)-N-(1-(3-chlorophenyl)-2-hydroxyethyl)-1H-pyrrole-2-carboxamide] |  |  |  |  |  |  |  |  |  |  |  |  | IC50 [1]: 64 nM; IC50 (pRSK/RSK in A375 cells): 37 nM; longer half-life than ulixertinib ([2]; Table 5): 30%; half-life at 1 μM ([2]; Rep 1, read-out: Half-life, t½, Rep 1): 1.01 h; half-life at 1 μM ([2]; Rep 2, read-out: Half-life, t½, Rep 2): 1.26 h; half-life at 1 μM ([2]; Rep 3, read-out: Half-life, t½, Rep 3): 1.07 h; half-life at 1 μM ([2]; Rep 4, read-out: Half-life, t½, Rep 4): 1.02 h; half-life at 1 μM ([2]; Rep 5, read-out: Half-life, t½, Rep 5): 0.992 h; half-life at 1 μM ([2]; Rep 6, read-out: Half-life, t½, Rep 6): 1.01 h; half-life at 1 μM ([2]; six replicates, read-out: Half-life, t½, Mean ± SD): 1.06 ± 0.102 h; Half-life, % change relative to ulixertinib ([2]; mean): (+30%); IC50 (A375 cells): 310 nM
C[C@H](Nc1cc(-c2c[nH]c(C(=O)N[C@H](CO)c3cccc(Cl)c3)c2)c(Cl)cn1)C(=O)O [Formula 37] | 8.2% | 6500 ± 5500 ng·h/mL | 0.2% | 400 ± 200 ng·h/mL |  |  |  |  |  |  |  |  | 
C[C@H](CO)Nc1cc(-c2c[nH]c(C(=O)N[C@H](CO)c3cccc(Cl)c3)c2)c(Cl)cn1 [Formula 34] | 49.9% | 39400 ± 12000 ng·h/mL | 8.1% | 15900 ± 4700 ng·h/mL |  |  |  |  |  |  |  |  | Formula 34/Ulixertinib steady-state AUC ratio ([3]; day 15): 1.3; Formula 34/Ulixertinib steady-state AUC ratio ([4]; day 5): 0.09
C[C@@H](CO)Nc1cc(-c2c[nH]c(C(=O)N[C@H](CO)c3cccc(Cl)c3)c2)c(Cl)cn1 [Formula 35] | 4.3% | 3400 ± 2300 ng·h/mL | 0.6% | 1200 ± 200 ng·h/mL |  |  |  |  |  |  |  |  | 
Cl.[2H]C([2H])([2H])C([2H])(Nc1cc(-c2c[nH]c(C(=O)N[C@H](CO)c3cccc(Cl)c3)c2)c(Cl)cn1)C([2H])([2H])[2H] [Formula 18A] |  |  |  |  | 228000 ng·h/mL | 4.18 h | (−4%^a) | (−75%^a) | (+25%^a) | (+32%^a) | (+14%^a) | 14% | 
Cl.[2H]C([2H])([2H])C(Nc1cc(-c2c[nH]c(C(=O)N[C@H](CO)c3cccc(Cl)c3)c2)c(Cl)cn1)C([2H])([2H])[2H] [Formula 19A] |  |  |  |  | 199000 ng·h/mL | 4 h | (−17%^a) | (−84%^a) | (−35%) | (+15%^a) | (+9%^a) | 9% | 
